Source: patent US20130289083A1, “IDO Inhibitors” (priority 2007, published 2013)
Where two headings read alike, the source gives them in different places.

Columns and labels:
[1] = molecular target: purified human IDO protein (Homo sapiens, UniProt P14902); test: Enzymatic IDO assay (kynurenine production, absorbance 480 nm); conditions: enzymatic activity
human IDO = human IDO (Homo sapiens, UniProt P14902); test: Cell based IDO/kynurenine assay in IDO-293-T-Rex cells; conditions: kynurenine production, read-out: hIDO EC50
Sequence of human IDO (P14902 whole entry): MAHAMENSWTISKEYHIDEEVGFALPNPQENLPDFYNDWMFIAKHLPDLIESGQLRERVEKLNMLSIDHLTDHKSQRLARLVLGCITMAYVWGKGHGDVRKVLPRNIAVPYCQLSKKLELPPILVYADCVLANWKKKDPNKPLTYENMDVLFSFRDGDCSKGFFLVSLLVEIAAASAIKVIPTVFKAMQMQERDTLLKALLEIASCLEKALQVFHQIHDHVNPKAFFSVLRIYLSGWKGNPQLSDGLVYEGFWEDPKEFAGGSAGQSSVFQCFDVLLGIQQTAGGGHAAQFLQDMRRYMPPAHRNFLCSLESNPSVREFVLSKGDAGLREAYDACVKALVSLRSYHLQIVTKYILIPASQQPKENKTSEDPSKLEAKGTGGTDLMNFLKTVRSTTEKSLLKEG
Procedure: 293-T-REx™ cells (Invitrogen) constitutively express a tet operator binding repressor protein and are maintained in DMEM, 10% FBS, 1× Penicillin+Streptomycin, 2 mM L-glutamine, 5 μg/mL blasticidin at 37° C. with a 5% CO2 in air atmosphere and typically split prior to confluency. Cells were passed by splitting the culture 1/10—by removing media by aspiration, washing 1× with PBS, incubating with 0.25% trypsin/EDTA until the cells detach, disbursing the cells in fresh growth media, and plating at 1/10 dilutions in fresh growth media. For long term cryopreservation, cells are detached from the plate as described above, collected by centrifugation, resuspended in freeze medium (growth medium, 10% DMSO), stored in 1.8 mL cyropreservation vials (˜2−5×10^6 cells per vial), in liquid nitrogen vapor storage tanks.
IDOl-expressing 293-T-Rex™ cell lines were generated by stable transfection of plasmid pcDNA-tetO-IDO expressing human IDO or murine IDO under the control of the doxycycline-inducible CMV-tet promoter. Transfected cells were selected in DBZ medium (DMEM, 10% FBS, 1× Penicillin+Streptomycin, 2 mM L-glutamine, 5 μg/mL blasticidin and 25 μg/ml Zeocin) at 37° C. with a 5% CO2 in air atmosphere. Individual clones were isolated by limiting dilution cloning from these populations.
[…]. The cells incubated in Neutral medium serve as negative control of the assay. The cells incubated in Induction medium and without inhibitor serve as the positive control of the assay. The incubation is carried out for 16 h at 37° C. in a cell culture incubator. 200 μL of medium are transferred to U-bottom polypropylene 96-well plates containing 25 μL of 30% TCA, incubated 30 minutes at 60° C. and centrifuged at 3400 g for 5 minutes. 150 μL of the clear supernatant is transferred to a polystyrene 96-well plate containing 50 μL of 4% (w/v) of p-dimethylaminobenzaldehyde in acetic acid, incubated for 10 min. Kynurenine concentration is determined by measuring the absorbance at 480 nm.
The conditions of the assay were as described in the examples.

[2] = hIDO IC50, recombinant human IDO, values reported in ranges
[3] = 293T cell line stably expressing human IDO, values reported in ranges
[4] = hIDO IC50, Table 15, recombinant human IDO
[5] = Table 15, 293T cells expressing human IDO
[6] = read-out: hIDO IC50, recombinant human IDO, values reported in ranges

Sequence of purified human IDO protein (P14902 whole entry P110S/E119G): as the sequence (P14902 whole entry) above, with P110S, E119G counted along it

Row | SMILES | IC50 [1, 2] [µM] | EC50 (human IDO; [3]) [µM] | IC50 [1, 4] [µM] | EC50 (human IDO; [5]) [µM] | IC50 [1, 6] [µM]
1 | NC(CSC(=S)NCCCc1ccccc1)C(=O)O (stereo not drawn) [compound 140, 2-amino-3-(3-phenylpropyl-carbamo-thioylthio)propanoic acid] | 100 to 1000 | 20 to 100 | – | – | –
2 | NOC(COc1ccccc1)c1ccccc1 (stereo not drawn) [compound 1937, O-(2-phenoxy-1-phenylethyl)hydroxylamine] | – | – | < 10 | < 10 | –
3 | CSC(=S)NCCc1c[nH]c2c(Cl)cc(Cl)cc12 [compound 42] | – | 100 to 1000 | – | – | 100 to 1000
4 | S=C(NCCc1c[nH]c2ccccc12)SCc1ccc2c(c1)OCO2 [compound 50, Benzo[d][1,3]dioxol-5-ylmethyl 2-(1H-indol-3-yl)ethylcarbamodithioate] | 20 to 100 | 20 to 100 | – | – | –
5 | COC(=O)c1ccc(-c2ccc(Cl)cc2CON)cc1 [compound 1935, methyl 2′-(aminooxymethyl)-4′-chlorobiphenyl-4-carboxylate] | – | – | < 10 | < 10 | –
6 | NOC(CCC1CCCCC1)c1ccccc1 (stereo not drawn) [compound 1938, O-(3-cyclohexyl-1-phenylpropyl)hydroxylamine] | – | – | < 10 | < 10 | –
7 | Oc1ccccc1C(=S)NCCc1ccccc1 [compound 634, 2-Hydroxy-N-phenethylbenzothioamide] | 100 to 1000 | 100 to 1000 | – | – | –
8 | CSC(=S)NCCc1ccc(C)cc1C [compound 66, Methyl 2,4-dimethylphenethylcarbamodithioate] | 100 to 1000 | 100 to 1000 | – | – | –
9 | CSC(=S)NCCc1c[nH]c2ccc([N+](=O)[O-])cc12 [compound 40] | – | 100 to 1000 | – | – | 100 to 1000
10 | CC1=C(CN2C(=O)c3ccccc3C2=O)C(=O)c2ccccc2C1=O [compound 464, 2-((3-methyl-1,4-dioxo-1,4-dihydronaphthalen-2-yl)methyl)isoindoline-3-dione] | 20 to 100 | 1000 to 10000 | – | – | –
11 | Fc1ccc(CCSC(=S)NCCc2c[nH]c3ccccc23)cc1 [compound 3, 4-Fluorophenethyl 2-(1H-indol-3-yl)ethylcarbamodithioate] | 100 to 1000 | 100 to 1000 | – | – | –
12 | Cc1ccc(CCSC(=S)NCCc2c[nH]c3ccccc23)cc1 [compound 9, 4-Methylphenethyl 2-(1H-indol-3-yl)ethylcarbamodithioate] | 100 to 1000 | 20 to 100 | – | – | –
13 | CSC(=S)NCCc1c[nH]c2cc(Cl)cc(Cl)c12 [compound 43] | – | 100 to 1000 | – | – | 100 to 1000
14 | CSC(=S)NCCc1c[nH]c2cc(F)c(F)c(F)c12 [compound 45] | – | 100 to 1000 | – | – | 100 to 1000
15 | Cc1ccc2cc(CSC(=S)NCCc3c[nH]c4ccccc34)ccc2n1 [compound 38, (2-Methylquinolin-6-yl)methyl 2-(1H-indol-3-yl)ethylcarbamodithioate] | 100 to 1000 | 20 to 100 | – | – | –
16 | Oc1ccccc1C(=S)NCCc1csc2ccccc12 [compound 672, N-(2-(benzo[b]thiophen-3-yl)ethyl)-2-hydroxybenzothioamide] | 100 to 1000 | 20 to 100 | – | – | –
17 | Oc1ccccc1C(=S)NCCc1c[nH]c2ccccc12 [compound 644, N-(2-(1H-indol-3-yl)ethyl)-2-hydroxybenzothioamide] | 100 to 1000 | 20 to 100 | – | – | –
18 | O=C1C(O)=C(CC2=C(O)C(=O)c3ccccc3C2=O)C(=O)c2ccccc21 [compound 477] | < 20 | 20 to 100 | – | – | –
19 | NOCc1cc(Cl)ccc1-c1ccc2[nH]ccc2c1 [compound 1930, O-(5-chloro-2-(1H-indol-5-yl)benzyl)hydroxylamine] | – | – | < 10 | < 10 | –
20 | CC(CSC(=S)NCCc1c[nH]c2ccccc12)c1ccccc1 (stereo not drawn) [compound 6, 2-Phenylpropyl 2-(1H-indol-3-yl)ethylcarbamodithioate] | 100 to 1000 | 100 to 1000 | – | – | –
21 | Cc1c(O)c(=O)ccn1CCc1c[nH]c2ccccc12 [compound 552, 1-(2-(1H-indol-3-yl)ethyl)-3-hydroxy-2-methylpyridin-4(1H)-one] | 100 to 1000 | 20 to 100 | – | – | –
